# Results as given in article PMC9298194, “Clinical Pharmacokinetics of Daprodustat: Results of an Absorption, Distribution, and Excretion Study With Intravenous Microtracer and Concomitant Oral Doses for Bioavailability Determination” (Clinical Pharmacology in Drug Development, 2021).
# Values joined by “and” are separate entries in the source; they are usually repeats but may differ in a detail not shown here. Equal values may be shown once. Marks after values point to notes of the source that are not given here.
# Tests used:
# [1] = ref GSK data on file; cited from earlier work
# [2] = Safety and tolerability (adverse events) in healthy male participants; format: in vivo, human; conditions: for deaths or serious adverse events: 6 healthy men
# Source text: Safety and tolerability measures included assessment of adverse events (AEs), serious adverse events (SAEs), clinical laboratory findings, vital signs (systolic and diastolic blood pressure and pulse rate), ECGs, and concurrent medications. An AE was defined as any untoward medical occurrence in a participant temporally associated with the use of an investigational product, whether or not considered related to the investigational product. […] The investigator or site staff was responsible for detecting, documenting, and reporting events that met the definition of an AE or SAE.
# [3] = Metabolite load, hepatic extraction, fraction escaping gut metabolism and fraction absorbed analyses; format: in vivo, human
# Method: To assess the extent of metabolism and absorption of daprodustat, the plasma PK parameters: metabolite load, fraction escaping metabolism by the gut wall (Fg), hepatic extraction (Eh), and fraction absorbed (Fabs) were calculated on the basis of equations found in Harrell et al.[18] All parameters for analysis have been conducted on plasma results (assuming a blood to plasma ratio of 1) but when appropriate, the actual human blood:plasma ratio of 1.23 (internal GSK reports) of daprodustat has been applied to specific parameters to aid interpretation. (1) HepaticExtraction:Eh(blood)=CLbtotal−CLbrenal/QH (2) Fractionescapinglivermetabolism:Fh=1−Eh(blood) (3) MetaboliteLoadTRA=totalradioactivity:MLroute=AUCTRAroute−AUCroute/AUCTRAroute (4) Fractionescapinggut:Fg=1−MLoral−MLIV/Fh (5) Fractionabsorbed:Fabs=Foral/Fh×Fg
# [4] = 39‐week study in monkeys; cited from earlier work
# [5] = human; ref internal GSK reports; cited from earlier work
# [6] = Blood and plasma total radioactivity pharmacokinetics after [14C]-GSK1278863; format: in vivo, human; conditions: for tmax, total radioactivity: median (range)
# Method: As per standard practice for administration of radiolabeled drug, the IV and oral dosing solutions were analyzed for daprodustat via assessment of the radioactivity and through application of the predetermined specific activity. Whole blood samples were collected for measurement of each of the following: blood total radioactivity in period 2 and plasma total radioactivity in period 1, plasma concentrations of daprodustat, and the 6 predominant circulating metabolites in periods 1 and 2. Blood samples were collected at 1, 3, and 6 hours after dosing for blood assessments. Blood samples were collected for plasma assessments before dosing and at 0.50, 1, 1.25, 1.5, 2, 3, 4, 6, 8, 10, 12, 24, 36, 48, 72, 96, 120, and 144 hours after dosing.
# Whole blood samples for unlabeled assays were collected into K3 ethylenediaminetetraacetic acid tubes, gently inverted several times and immediately placed on ice water. Samples were then centrifuged at 1500 × g for 15 minutes; the supernatant plasma was transferred to Nunc tubes and stored at −20°C before shipment. Samples for unlabeled daprodustat and specific assay metabolite measurements were shipped frozen to PPD Laboratories (Middleton, Wisconsin). Samples for radioactivity measurements were shipped frozen to either GSK Research and Development (Ware, Hertfordshire, UK; period 1) or Covance (period 2). Some period 2 plasma samples were subsequently analyzed by accelerator mass spectrometry (AMS) at Ware (UK) after being not quantifiable by LSC analysis.
# Human urine, feces, and blood samples from treatment period 2 were analyzed by Covance using LSC. The LLQ for urine using LSC was 5.63 ng Eq/mL, using a 1000 μL aliquot of human urine. The LLQ for blood using LSC was 11.6 ng Eq/mL, using a 400 μL aliquot of human blood. The LLQ for feces using LSC was 25.3 ng Eq/mL, using a 0.2‐ to 0.4‐g aliquot of human feces. Treatment period 2 plasma samples that were not quantifiable following LSC analysis at Covance were subsequently reanalyzed for total radioactivity by AMS at GSK. The LLQ using AMS was 15.8 pg Eq/mL, using a 50 μL aliquot of human plasma.
# Plasma daprodustat and [^14C]‐GSK1278863 plasma and blood total radioactivity concentration‐time data were analyzed by noncompartmental methods with WinNonlin Version 6.3 or above (Certara, Princeton, New Jersey). Calculations were based on the actual sampling times recorded during the study. From the plasma concentration‐time data, the following PK parameters were determined for daprodustat, its metabolites, [^14C]‐GSK1278863, and total radioactivity, as the data permitted: maximum observed plasma concentration (Cmax), time to Cmax (tmax), area under the plasma concentration–time curve (AUC) from time 0 to the last measurable concentration (AUC0‐t), AUC from time 0 extrapolated to infinity (AUC0–inf), and apparent terminal phase half‐life (t½), following oral and IV dosing. Additionally, daprodustat volume of distribution at steady state (Vss) and the total systemic clearance (CL) were derived following IV dosing, and daprodustat absolute bioavailability (F) was determined from the oral tablet and IV plasma PK data from treatment period 1 with the following equation: F=AUCpo/AUCIV×doseIV/dosepo
# To assess relative exposure levels between parent daprodustat and the measured metabolites, the ratio of parent daprodustat/total radioactivity was calculated for the plasma PK parameters following IV and oral administration of [^14C]‐GSK1278863: Cmax, AUC0‐t, and AUC0‐inf.
# [7] = Period 1: 6‐mg oral tablet + 50‐μg IV
# [8] = IV infusion, plasma, mean (SD), n = 5
# [9] = oral solution, plasma, mean (SD)
structure (smiles),measurement,setting,value
O=C(O)CNC(=O)C1C(=O)N(C2CCCCC2)C(=O)N(C2CCCCC2)C1=O [Daprodustat],protein binding,[1],> 99%
same,participants reporting AEs,[2]; 3 of 6 participants,50%
same,Back pain,[2]; [7],1 (17) n (%)
same,Decreased appetite,[2]; [7],1 (17) n (%)
same,Headache,[2]; [7],1 (17) n (%)
same,Musculoskeletal chest pain,[2]; [7],0 n (%)
same,Myalgia,[2]; [7],1 (17) n (%)
same,Oropharyngeal pain,[2]; [7],0 n (%)
same,Back pain,[2]; Period 2: 25‐mg oral solution,0 n (%)
same,Decreased appetite,[2]; Period 2: 25‐mg oral solution,0 n (%)
same,Headache,[2]; Period 2: 25‐mg oral solution,1 (17) n (%)
same,Musculoskeletal chest pain,[2]; Period 2: 25‐mg oral solution,1 (17) n (%)
same,Myalgia,[2]; Period 2: 25‐mg oral solution,0 n (%)
same,Oropharyngeal pain,[2]; Period 2: 25‐mg oral solution,1 (17) n (%)
same,Back pain,[2]; Total,1 (17) n (%)
same,Decreased appetite,[2]; Total,1 (17) n (%)
same,Headache,[2]; Total,1 (17) n (%)
same,Musculoskeletal chest pain,[2]; Total,1 (17) n (%)
same,Myalgia,[2]; Total,1 (17) n (%)
same,Oropharyngeal pain,[2]; Total,1 (17) n (%)
same,deaths or serious adverse events,[2]; both treatment periods,no deaths or serious or significant adverse events reported
same,deaths or serious adverse events,"[2]; both treatment periods, listed as daprodustat",No deaths or other SAEs
same,total number of AEs reported,"[2]; both treatment periods, N = 6",7
same,tolerability,"[2]; oral tablet, microtracer IV or oral solution dose",generally well tolerated
same,Eh (hepatic extraction),"[3]; [14C] IV infusion, fraction, adjusted with blood:plasma ratio of 1.23, mean (SD), n = 3",0.181 (0.050)
same,MLIV (plasma metabolite load),"[3]; [14C] IV infusion, mean (SD), n = 3",0.623 (0.080)
same,MLIV (plasma metabolite load),"[3]; [14C] IV infusion, mean (SD), n = 3, listed as daprodustat",≈ 0.623 (0.080)
same,Fabs (fraction absorbed),"[3]; [14C] oral solution, fraction, reduced to Foral/Fh, blood:plasma ratio 1.23, mean (SD), n = 3",0.811 (0.134)
same,Fg (fraction escaping metabolism by the gut wall),"[3]; [14C] oral solution, mean (SD), n = 3",> 1
same,MLPO (plasma metabolite load),"[3]; [14C] oral solution, mean (SD), n = 6",~0.584 (0.060)
same,daprodustat absorbed across the gastrointestinal tract (Fabs),[3]; following oral solution administration,≈ 80% and 81% and ≈ 81%
same,hepatic extraction,"[3]; from blood CL, human liver blood flow of 87 L/h",≈ 18% and 18%
same,doses at which gastric erosions were observed,[4],≥ 10 mg/kg/day
same,no observed adverse effect level,[4],3 mg/kg/day
same,blood:plasma ratio,[5],1.23
same,AUC0‐inf ratio of plasma daprodustat to plasma total radioactivity,[6]; IV administration,0.40
same,AUC0‐t ratio of plasma daprodustat to plasma total radioactivity,[6]; IV administration,0.40
same,Cmax ratio of plasma daprodustat to plasma total radioactivity,[6]; IV administration,0.68
same,"AUC0‐t, total radioactivity","[6]; IV infusion, plasma, mean (SD)",6.62 (1.20) ng Eq • h/mL
same,"Cmax, total radioactivity","[6]; IV infusion, plasma, mean (SD)",3.04 (0.49) ng Eq/mL
same,"AUC0‐inf, total radioactivity",[6]; [8],6.79 (1.31) ng Eq • h/mL
same,"CL, total radioactivity",[6]; [8],7.59 (1.50) μg/[ng Eq • h/mL]
same,"Vss, total radioactivity",[6]; [8],36.3 (19.6) μg/[ng Eq/mL]
same,"t½, total radioactivity",[6]; [8],8.88 (6.58) h
same,"tmax, total radioactivity","[6]; IV infusion, plasma",0.98 h
same,"tmax, total radioactivity","[6]; IV infusion, plasma, listed as [^14C]‐GSK1278863",0.983 (0.983−1.25) h
same,parent daprodustat as share of total circulating radioactivity in plasma,"[6]; following IV and oral solution administration, AUC ratio",Approximately 40%
same,blood:plasma ratio of total radioactivity,[6]; from Cmax in blood and plasma after oral solution,0.46
same,AUC0‐inf ratio of plasma daprodustat to plasma total radioactivity,[6]; oral solution administration,0.42
same,AUC0‐t ratio of plasma daprodustat to plasma total radioactivity,[6]; oral solution administration,0.43
same,Cmax ratio of plasma daprodustat to plasma total radioactivity,[6]; oral solution administration,0.87
same,"Cmax, total radioactivity","[6]; oral solution, blood, mean (SD), listed as [^14C]‐GSK1278863",302 ng Eq/mL and 302 (95.6) ng Eq/mL
same,"tmax, total radioactivity","[6]; oral solution, blood",1.00 (1.00−3.00) h
same,"AUC0‐t, total radioactivity","[6]; oral solution, blood, t = 6 hours, mean (SD)",835 (154) ^b ng Eq • h/mL
same,"AUC0‐inf, total radioactivity",[6]; [9],2312 (447) ng Eq • h/mL
same,"AUC0‐t, total radioactivity",[6]; [9],2239 (441) ng Eq • h/mL
same,"t½, total radioactivity",[6]; [9],62.4 (9.62) h
same,"Cmax, total radioactivity","[6]; oral solution, plasma, mean (SD), listed as [^14C]‐GSK1278863",654 ng Eq/mL and 654 (219) ng Eq/mL
same,"tmax, total radioactivity","[6]; oral solution, plasma",0.76 h
same,"tmax, total radioactivity","[6]; oral solution, plasma, listed as [^14C]‐GSK1278863",0.758 (0.500−3.00) h
